Legend:
Test in all cases: Continuous Assay
[1] = target: T1, Dihydroorotate dehydrogenase (quinone), mitochondrial (Plasmodium falciparum, UniProt Q54A96)
T1 sequence (Q54A96 whole entry): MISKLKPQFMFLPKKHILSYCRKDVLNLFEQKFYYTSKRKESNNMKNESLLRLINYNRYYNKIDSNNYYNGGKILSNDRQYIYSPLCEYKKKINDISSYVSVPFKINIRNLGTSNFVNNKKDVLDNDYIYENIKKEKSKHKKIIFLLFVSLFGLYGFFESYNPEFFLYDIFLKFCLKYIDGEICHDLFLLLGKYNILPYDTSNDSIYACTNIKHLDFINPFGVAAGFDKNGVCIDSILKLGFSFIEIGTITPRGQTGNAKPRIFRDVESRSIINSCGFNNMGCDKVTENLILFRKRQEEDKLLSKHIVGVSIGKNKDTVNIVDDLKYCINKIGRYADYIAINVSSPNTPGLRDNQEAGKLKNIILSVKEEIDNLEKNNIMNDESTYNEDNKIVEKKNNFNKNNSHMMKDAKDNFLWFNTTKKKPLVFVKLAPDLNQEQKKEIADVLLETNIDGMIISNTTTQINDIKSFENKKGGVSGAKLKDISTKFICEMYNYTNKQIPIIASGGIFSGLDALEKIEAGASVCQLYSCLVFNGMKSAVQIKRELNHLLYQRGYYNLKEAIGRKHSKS
Method: (§1) Assay was determined using a continuous assay.

[2] = target: Dihydroorotate dehydrogenase (quinone), mitochondrial (Homo sapiens, UniProt Q02127)
Method: as §1

[3] = target: T2, Dihydroorotate dehydrogenase (quinone), mitochondrial [100-517] (Plasmodium berghei (strain Anka), UniProt A0A509AEH5)
T2 construct: 100-517
T2 sequence (A0A509AEH5 whole entry): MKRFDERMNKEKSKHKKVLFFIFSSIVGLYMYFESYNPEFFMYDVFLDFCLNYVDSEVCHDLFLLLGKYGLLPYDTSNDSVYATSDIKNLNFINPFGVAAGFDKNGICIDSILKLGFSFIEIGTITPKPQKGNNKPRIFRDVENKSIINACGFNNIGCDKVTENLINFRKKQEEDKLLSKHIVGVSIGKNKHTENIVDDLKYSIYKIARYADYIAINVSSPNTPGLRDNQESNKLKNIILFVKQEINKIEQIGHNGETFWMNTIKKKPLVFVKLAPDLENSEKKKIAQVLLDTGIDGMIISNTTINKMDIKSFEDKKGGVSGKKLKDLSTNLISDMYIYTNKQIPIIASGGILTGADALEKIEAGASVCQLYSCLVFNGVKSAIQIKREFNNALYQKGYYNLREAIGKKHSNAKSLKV
Method: as §1

[4] = target: T3, Dihydroorotate dehydrogenase (quinone), mitochondrial (Plasmodium vivax (strain Salvador I), UniProt A5K1N1)
T3 sequence (A5K1N1 whole entry): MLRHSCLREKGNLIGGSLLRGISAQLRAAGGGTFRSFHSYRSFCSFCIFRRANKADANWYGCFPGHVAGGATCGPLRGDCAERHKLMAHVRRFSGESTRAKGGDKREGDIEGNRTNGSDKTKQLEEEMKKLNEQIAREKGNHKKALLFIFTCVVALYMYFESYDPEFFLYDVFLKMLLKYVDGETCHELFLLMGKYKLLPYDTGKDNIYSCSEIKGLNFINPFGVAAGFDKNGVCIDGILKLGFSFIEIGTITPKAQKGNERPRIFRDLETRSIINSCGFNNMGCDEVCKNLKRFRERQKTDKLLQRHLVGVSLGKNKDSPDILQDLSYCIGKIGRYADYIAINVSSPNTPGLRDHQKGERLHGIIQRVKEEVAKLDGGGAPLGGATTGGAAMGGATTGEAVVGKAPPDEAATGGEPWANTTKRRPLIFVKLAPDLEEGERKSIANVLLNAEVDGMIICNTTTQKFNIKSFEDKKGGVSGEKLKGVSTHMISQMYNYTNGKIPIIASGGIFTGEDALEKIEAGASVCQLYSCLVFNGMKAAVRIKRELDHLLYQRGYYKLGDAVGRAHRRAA
Method: as §1

Chain of Dihydroorotate dehydrogenase (quinone), mitochondrial (Homo sapiens, UniProt Q02127) (Q02127 whole entry): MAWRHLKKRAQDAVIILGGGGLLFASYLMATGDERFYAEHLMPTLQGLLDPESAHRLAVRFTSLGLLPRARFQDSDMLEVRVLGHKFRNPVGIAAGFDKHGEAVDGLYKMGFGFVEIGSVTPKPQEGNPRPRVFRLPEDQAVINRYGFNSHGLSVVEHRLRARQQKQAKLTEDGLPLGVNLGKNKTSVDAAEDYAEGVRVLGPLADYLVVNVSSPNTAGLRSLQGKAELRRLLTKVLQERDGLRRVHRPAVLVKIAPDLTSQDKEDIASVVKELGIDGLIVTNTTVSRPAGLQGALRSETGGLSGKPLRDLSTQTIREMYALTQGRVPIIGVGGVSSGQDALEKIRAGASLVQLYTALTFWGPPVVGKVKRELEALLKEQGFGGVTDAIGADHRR

Structure (SMILES) | IC50 [1] | IC50 [2] | IC50 [3] | IC50 [4]
CCCCCC1CCCc2c1nc1ccccc1c2O (centres undefined) [US8703811, 3] | 340 nM | > 30000 nM | 110 nM | 510 nM
CCCNC(=O)c1ccc(-n2c(C)cc3ccccc32)s1 [US8703811, 1] | 420 nM | > 30000 nM | – | –
CCOC(=O)c1[nH]c(C)c(Cc2ccc(OCC)cc2)c1C [US8703811, 6] | 83 nM | > 30000 nM | 60 nM | –
Cc1ccccc1/C=C/c1cc(O)c2ccccc2n1 [US8703811, 2] | 930 nM | > 30000 nM | 560 nM | 5600 nM
O=C(NC1CC1)c1ccc(N2CCSc3ccccc32)s1 [US8703811, 5] | 250 nM | – | – | –

Reference: BindingDB's records for doi:10.1074/jbc.M804990200 (Harvard Medical School, 2008)
